One assay concerns SK-OV-3. Put plainly: Anticancer activity against human SK-OV-3 cells assessed as reduction in cell viability incubated for 24 hrs by MTT assay. The assay is classed as functional, cell-based. The note with it: SK-OV-3, 24 h.
The subject of assay [1] is MCF7. Put plainly: Anticancer activity against human MCF7 cells assessed as inhibition of cell proliferation measured after 48 hrs by MTT assay. The assay is classed as functional, cell-based. To be noted: MCF7, 48 h.
Assay [2] deals with MCF7-DOX. Put plainly: Antiproliferative activity against human MCF7-DOX cells assessed as reduction in cell viability incubated for 72 hrs by MTT assay. It counts as functional, cell-based.
Assay [3] deals with HeLa. As to the kind of experiment: Growth inhibition of human HeLa cells incubated for 48 hrs by MTT assay. It counts as functional.
Assay [4] relates to MCF7. Put plainly: Anticancer activity against human MCF7 cells assessed as inhibition of cell proliferation measured after 72 hrs by MTT assay. The note with it: MCF7, 72 h. It counts as functional, cell-based.
The test system of another assay is C6. As to the kind of experiment: Antiproliferative activity against rat C6 cells assessed as inhibition of cell growth. It counts as functional, cell-based.
The test system of another assay is NCI-H460. Put plainly: Cytotoxicity against human NCI-H460 cells assessed as cell growth inhibition incubated for 24 hrs by MTT assay. The assay is classed as functional, cell-based. The note with it: NCI-H460, 24 h.
In another assay the test system is MGC-803. Put plainly: Cytotoxicity against human MGC-803 cells assessed as cell growth inhibition incubated for 24 hrs by MTT assay. It counts as functional, cell-based. To be noted: MGC-803, 24 h.
The test system of assay [5] is A549. As to the kind of experiment: Cytotoxicity against human A549 cells assessed as cell growth inhibition incubated for 24 hrs by MTT assay. It counts as functional, cell-based. To be noted: A549, 24 h.
Assay [6] relates to HeLa. As to the kind of experiment: Cytotoxicity against human HeLa cells assessed as growth inhibition measured after 48 hrs by MTT assay. It counts as functional, cell-based.
A further assay has as its system Ehrlich. Put plainly: Cytotoxicity against mouse EAC cell assessed as reduction in cell viability by MTT assay. It counts as functional, cell-based.
Assay [7] in a line: Cytotoxicity against mouse DLA cell assessed as reduction in cell viability by trypan blue assay. The assay is classed as functional, cell-based.
Assay [8] is described as follows: Cytotoxicity against mouse DLA cell assessed as reduction in cell viability by LDH leak assay. The assay is classed as functional, cell-based.
Assay [9] deals with MCF7. Put plainly: Antiproliferative activity against human MCF7 cells assessed as reduction in cell viability measured after 48 hrs by MTT assay. The assay is classed as functional, cell-based. To be noted: MCF7, 48 h.
Assay [10] relates to HepG2. Put plainly: Antiproliferative activity against human HepG2 cells assessed as reduction in cell viability measured after 48 hrs by MTT assay. The assay is classed as functional, cell-based. To be noted: HepG2, 48 h.
The nature of assay [11]: Cytotoxicity against rat H4-II-E cells assessed as reduction in cell viability measured after 24 hrs by MTT assay. The assay is classed as functional, cell-based. The note with it: H4IIE.
In the next assay the test system is DU-145. Put plainly: Anticancer activity against human DU-145 cells assessed as reduction in cell viability by SRB assay. It counts as functional, cell-based.
Assay [12] has as its system A549. Put plainly: Anticancer activity against human A549 cells assessed as reduction in cell viability by SRB assay. It counts as functional, cell-based.
For assay [13], the system named is MCF7. Put plainly: Anticancer activity against human MCF7 cells assessed as reduction in cell viability by SRB assay. The assay is classed as functional, cell-based.
The test system of assay [14] is HepG2. As to the kind of experiment: Anticancer activity against human HepG2 cells assessed as reduction in cell viability by SRB assay. The assay is classed as functional, cell-based.
The test system of assay [15] is MCF7-DOX. As to the kind of experiment: Antiproliferative activity against human MCF7-DOX cells assessed as reduction in cell viability by SRB assay. The assay is classed as functional, cell-based.
A further assay relates to MT4. As to the kind of experiment: Cytotoxicity against human MT4 cells assessed as inhibition of cell growth incubated for 72 hrs by MTT assay. It counts as functional.
Another assay has as its system MDA-MB-231. Put plainly: Cytotoxicity against human MDA-MB-231 cells assessed as inhibition of cell growth incubated for 72 hrs by MTT assay. The assay is classed as functional.
Assay [16] deals with MCF7. As to the kind of experiment: Cytotoxicity against human MCF7 cells assessed as inhibition of cell growth incubated for 72 hrs by MTT assay. It counts as functional.
Assay [17] has as its system HepG2. Put plainly: Cytotoxicity against human HepG2 cells assessed as growth inhibition measured after 48 hrs by MTT assay. The assay is classed as functional, cell-based. The note with it: HepG2, 48 h.
Another assay deals with SNB-75. Put plainly: Antiproliferative activity against human SNB-75 cells assessed as cell growth inhibition at 10 uM by SRB assay relative to control. It counts as functional.
Assay [18] relates to HepG2. Put plainly: Antiproliferative activity against human HepG2 cells assessed as reduction in cell viability incubated for 48 hrs by MTT assay. It counts as functional, cell-based. The note with it: HepG2, 48 h.
Assay [19] concerns HepG2. As to the kind of experiment: Induction of apoptosis in human HepG2 cells assessed as increase in apoptotic cells at 10 uM by Annexin V-FITC staining based flow cytometry (reference value: 13.76 %). It counts as functional.
Assay [20] concerns MCF7. As to the kind of experiment: Antiproliferative activity against human MCF7 cells assessed as reduction in cell viability incubated for 48 hrs by cell titer-glo assay. It counts as functional, cell-based. To be noted: MCF7, 48 h.

SMILES strings stand for the structures. pIC50: −log10 of the molar value. In brackets after ≈: the same amount, converted by molar mass.

With `Cc1cc(=O)oc2cc(OCCOCCOCCOCN3C(=O)/C(=N/O)c4cc(F)ccc43)ccc12`, the results for the pIC50 in the assay with SK-OV-3, with MCF7 [1] and in the assay with MCF7-DOX [2] were 4.62, 4.92 and 4.72, respectively.

With `O=c1cc(-c2nccc3c2[nH]c2ccccc23)c2cc(Cl)ccc2o1`, in the assay with HeLa [3], the GI50 is 23.4 µg/mL (≈ 67.5 µM).

Regarding `O=C(O)COc1ccc2ccccc2c1/C=C/C(=O)c1cc2c(ccc3ccccc32)oc1=O`, the pIC50 in the assay on MCF7 [4] is 4.81.

For `Cc1cn(Cc2cc(=O)oc3ccc(Cl)cc23)c(=O)n(Cc2cc(=O)oc3ccc(Cl)cc23)c1=O`, the pIC50 in the assay with C6 was 5.31.

Take `O=c1oc2ccccc2cc1NCc1ccc(Br)cc1`: the negative-log IC50 (pIC50) in the assay on NCI-H460 was 5.03; with MGC-803, 4.99; in the assay on A549 [5] it was 5.06.

`CCCCOc1ccc2cc(C(=O)NNC(=O)c3c(C)oc4nc(NCCC)n(-c5ccc(C)cc5)c(=O)c34)c(=O)oc2c1`: the pIC50 in the assay on HeLa [6] was 5.19.

As to `COc1ccc(-c2csc(NC(=O)c3cc4ccc(OC)cc4oc3=O)n2)cc1`, the negative logarithm of the IC50 (pIC50) in the assay on Ehrlich was 4.82; in [7] it was 4.81; in [8] it was 4.85.

In the case of `N#Cc1c(NN)nc(SCc2cc(=O)oc3ccccc23)nc1-c1ccccc1`, the IC50 with MCF7 [9] was found to be 6.9 µg/mL (≈ 17.2 µM). Besides, the pIC50 with HepG2 [10] is 5.26.

Consider `O=C(Nc1ccc(/C=C/C(=O)c2cc3ccccc3oc2=O)cc1)Nc1ccc(C(F)(F)F)cc1`, for which the pIC50 in assay [11] is 5.79.

As for `Cc1cc(=O)oc2cc(OCCOCCN3C(=O)/C(=N/O)c4cc(F)ccc43)ccc12`, the pIC50 in the assay with DU-145 was 4.68; with A549 [12], 4.96; with MCF7 [13], 4.95; in the assay on HepG2 [14] it was 4.99; with MCF7-DOX [15], 4.84.

For the compound `CC(=O)c1cc2cc(Nc3c(C)cc(C)c(-c4cc5ccccc5nc4F)c3C)c(=O)oc2cc1O`, the GI50 in the assay with MT4 is 12.6 µM; in the assay on MDA-MB-231, 11.8 µM; with MCF7 [16], 10.5 µM.

In the case of `CCCCOc1ccc2cc(C(=O)NNC(=O)c3c(C)oc4nc(N(CCC)CCC)n(-c5ccc(C)cc5)c(=O)c34)c(=O)oc2c1`, in the assay with HepG2 [17], the pIC50 is 5.31.

Regarding `COc1cc2c3c(c(=O)oc2cc1OS(=O)(=O)c1ccc(C(F)(F)F)cc1)CCCCC3`, the inhibition at 10 µM with SNB-75 was 91.9%.

In the case of `C/C(=N\Nc1nc(-c2ccccc2)cs1)c1ccc(NS(=O)(=O)c2ccc3oc(=O)ccc3c2)cc1`, the pIC50 in the assay with HepG2 [18] was 5.46. Besides, the Activity in the assay on HepG2 [19] worked out at 1.75%.

As to `CCN(C)S(=O)(=O)c1ccc(/C(C)=N/NC(=O)c2cc3ccccc3oc2=O)cc1`, the pIC50 with MCF7 [20] was 5.59.

Source of the values: ChEMBL document CHEMBL5357036, “Latest developments in coumarin-based anticancer agents: mechanism of action and structure-activity relationship studies” (RSC Med Chem, 2024).
